According to ChEMBL document CHEMBL3525981, “Metabolism and disposition of 14C-labeled peliglitazar in humans” (Drug Metab Dispos, 2011):

Legend:
Homo sapiens [1] = assay: Drug level in human assessed as retention time treated with 10 mg, po of [14C]peliglitazar by LC-MS and LC-MS/MS analysis; assay type: ADME, organism-based
Homo sapiens [2] = assay: Drug metabolism in human assessed as retention time of parent compound at 10 mg, po by LC-MS and LC-MS/MS analysis; assay type: ADME, organism-based; conditions: in vivo

Row | Compound | Retention_time (Homo sapiens [1]) [min] | Retention_time (Homo sapiens [2]) [min]
1 | Cc1oc(-c2ccccc2)nc1CC(=O)O | 18.5 | –
2 | COc1ccc(OC(=O)N(CC(=O)O)[C@@H](C)c2ccc(O)cc2)cc1 | 21 | –
3 | COc1ccc(OC(=O)N(CC(=O)O)[14C@@H](C)c2ccc(O[14CH2]Cc3nc(-c4ccccc4)oc3C)cc2)cc1 | – | 65.5
4 | Cc1oc(-c2ccccc2)nc1CCOc1ccc([C@H](C)N(CC(=O)O[C@@H]2O[C@H](C(=O)O)[C@@H](O)[C@H](O)[C@H]2O)C(=O)Oc2ccc(O)cc2)cc1 | 32.2 | –

Second part, led by results:

Row | Retention_time (Homo sapiens [1]) [min] | Compound | Retention_time (Homo sapiens [2]) [min]
5 | 39.5 | COc1ccc(OC(=O)N(CC(=O)O)[C@@H](C)c2ccc(OCCc3nc(-c4ccccc4)oc3CO)cc2)cc1 | –
6 | 42.3 | COc1ccc(OC(=O)N(CC(=O)O)[C@@H](C)c2ccc(OCCc3nc(-c4ccc(O)cc4)oc3C)cc2)cc1 | –
7 | 46.8 | COc1ccc(OC(=O)N(CC(=O)O)[C@@H](C)c2ccc(OCC(O)c3nc(-c4ccccc4)oc3C)cc2)cc1 (stereo not given in full) | –
8 | 27.6 | C[C@@H](c1ccc(OCCc2nc(-c3ccccc3)oc2CO)cc1)N(CC(=O)O)C(=O)Oc1ccc(O)cc1 | –
9 | 32.1 | Cc1oc(-c2ccccc2)nc1C(O)COc1ccc([C@H](C)N(CC(=O)O)C(=O)Oc2ccc(O)cc2)cc1 (stereo not given in full) | –
10 | 48.4 | Cc1oc(-c2ccccc2)nc1CCOc1ccc([C@H](C)N(CC(=O)O)C(=O)Oc2ccc(O)cc2)cc1 | –
